From patent publication US8178568B2, “Sulfone compounds which modulate the CB2 receptor” (Boehringer Ingelheim International GmbH, priority 2008, dated 2012)

What follows are compounds tested against T1, human CB2R (Homo sapiens, UniProt P34972) (assay: CB2R mediated modulation of cAMP synthesis). Details: not given.
T1 construct: host or cells: CHO cells
Type: cell-based
Description: B. CB2R Mediated Modulation of cAMP Synthesis:
Compounds of the invention were evaluated for their CB2 agonist or inverse agonistic activity in accordance with the following experimental method.
CHO cells expressing human CB2R (Euroscreen) were plated at a density of 5000 cells per well in 384 well plates and incubated overnight at 37° C. After removing the media, the cells were treated with test compounds diluted in stimulation buffer containing 1 mM IBMX, 0.25% BSA and 10 uM Forskolin. The assay was incubated for 30 minutes at 37° C. Cells were lysed and the cAMP concentration was measured using DiscoverX-XS cAMP kit, following the manufacturer's protocol. In this setting, agonists will decrease forskolin induced production of cAMP while inverse agonists will further increase forskolin induced production of cAMP. EC50 of agonists were calculated as follows. The maximal amount of cAMP produced by forskolin compared to the level of cAMP inhibited by 1 uM CP55940 is defined as 100%. The EC50 value of each test compound was determined as the concentration at which 50% of the forskolin-stimulated cAMP synthesis was inhibited. Data was analyzed using a four-parameter logistic model. (Model 205 of XLfit 4.0).

T1 sequence (P34972 whole entry): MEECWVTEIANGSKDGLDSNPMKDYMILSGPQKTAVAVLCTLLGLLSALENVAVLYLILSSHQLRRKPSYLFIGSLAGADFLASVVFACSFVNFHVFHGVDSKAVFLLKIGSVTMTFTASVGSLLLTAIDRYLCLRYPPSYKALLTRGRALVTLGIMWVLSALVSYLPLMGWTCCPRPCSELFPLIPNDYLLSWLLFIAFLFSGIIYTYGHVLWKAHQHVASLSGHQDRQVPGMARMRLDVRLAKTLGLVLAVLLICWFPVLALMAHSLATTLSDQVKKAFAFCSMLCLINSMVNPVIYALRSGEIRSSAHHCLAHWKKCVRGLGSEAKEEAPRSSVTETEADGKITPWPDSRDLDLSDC

`CC(C)(C)c1cc(NC(=O)C(C)(CCO)S(=O)(=O)C2CCOCC2)on1` (stereo not drawn) and `CC(C)(C)c1cc(NC(=O)C(C)(CCO)S(=O)(=O)c2ccc(Cl)cc2)on1` (stereo not drawn) are within 1.5-fold of each other in EC50: 21 nM for the first, 17 nM for the second.

`CC(C)(C)c1cc(N2CC[C@@](C)(S(=O)(=O)c3ccc(Cl)cc3)C2=O)on1` and `CC(C)(C)c1cc(N2CC[C@](C)(S(=O)(=O)c3ccc(Cl)cc3)C2=O)on1` are within 1.5-fold of each other in EC50: 37 nM for the first, 25 nM for the second.

Compared with `CC(C)(C)c1cc(N2CCC(C)(S(=O)(=O)c3ccc(Cl)cc3)C2=O)no1` (stereo not drawn), `CC(C)(C)c1cc(N2CCC(C)(S(=O)(=O)c3ccc(Cl)cc3)C2=O)on1` (stereo not drawn) is 1.8-fold higher in EC50: 14 nM for the first, 25 nM for the second.

Same assay, conditions: Table III, formula I compounds; CHO cells expressing human CB2R, inhibition of forskolin-stimulated cAMP synthesis; read-out: CB2 EC50

Compared with `CC(C)(C)c1cc(N2CCC(C)(S(=O)(=O)C3CCOCC3)C2=O)on1` (stereo not drawn), `CC1(S(=O)(=O)c2ccc(Cl)cc2)CCN(c2nnc(-c3ccccc3)[nH]2)C1=O` (stereo not drawn) is 11-fold lower in EC50: 220 nM for the first, 20 nM for the second. The second is the more potent here.

Same assay, conditions: Table VI, formula IB compounds; CHO cells expressing human CB2R, inhibition of forskolin-stimulated cAMP synthesis; read-out: CB2 EC50

For `O=C(Nc1nc(-c2ccccc2)ns1)C(CCO)S(=O)(=O)c1ccc(Cl)cc1` (stereo not drawn), the EC50 was 544 nM.
